PubChem BioAssay (NCI)
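The concentration for 50% growth inhibition is given as GI50. TGI is the concentration that stops growth completely.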

Key:
Test in all cases: growth of human tumour cells (NCI), 384-well format; in the data active = GI50 below about 0.43 µM; inactive = the rest
[1] = system: HT29 colon
[2] = system: NCI-H522 lung
[3] = system: NCI-H460 NSCLC
[4] = system: U251 glioblastoma
[5] = system: LOX IMVI melanoma
[6] = system: PC-3 prostate
[7] = system: MALME-3M melanoma
[8] = system: SK-OV-3 ovarian
[9] = system: SNB-75 CNS
[10] = system: HL-60(TB) leukemia
[11] = system: OVCAR-4 ovarian
[12] = system: RXF 393 renal
[13] = system: SF-539 CNS
[14] = system: KM12 colon
[15] = system: HCC-2998 colon
[16] = system: K-562 leukemia
[17] = system: MDA-MB-435 melanoma
[18] = system: UACC-257 melanoma
[19] = system: HCT-116 colon
[20] = system: A549 NSCLC
[21] = system: IGROV1 ovarian
[22] = system: DU-145 prostate
[23] = system: NCI/ADR-RES ovarian
[24] = system: SF-295 CNS
[25] = system: HOP-92 NSCLC
[26] = system: SF-268 CNS
[27] = system: NCI-H23 lung
[28] = system: BT-549 breast
[29] = system: COLO 205 colon
[30] = system: MDA-MB-468 breast
[31] = system: OVCAR-5 ovarian
[32] = system: M14 melanoma
[33] = system: OVCAR-3 ovarian
[34] = system: NCI-H226 lung
[35] = system: ACHN renal
[36] = system: CCRF-CEM leukemia
[37] = system: OVCAR-8 ovarian
[38] = system: HCT-15 colon
[39] = system: 786-0 renal
[40] = system: MOLT-4 leukemia
[41] = system: MDA-MB-231 breast
[42] = system: A498 renal
[43] = system: SN12C renal
[44] = system: CAKI-1 renal
[45] = system: UO-31 renal
[46] = system: RPMI-8226 leukemia
[47] = system: TK-10 renal
[48] = system: HOP-62 NSCLC
[49] = system: EKVX NSCLC
[50] = system: MCF7 breast
[51] = system: UACC-62 melanoma
[52] = system: HS 578T breast
[53] = system: NCI-H322M lung
[54] = system: SNB-19 CNS
[55] = system: SW-620 colon
[56] = system: SK-MEL-28 melanoma
[57] = system: T-47D breast
[58] = system: SK-MEL-5 melanoma

Cc1csc(-c2nnc(Nc3ccc(Oc4ncccc4-c4ccnc(N)n4)cc3)c3ccccc23)c1
6120 nM: TGI [7]
3530 nM: TGI [15]
56.4 nM: TGI [26]
3130 nM: TGI [55]
13100 nM: TGI [50]
> 100000 nM: TGI [4] | TGI [5] | TGI [6] | TGI [8] | TGI [9] | TGI [11] | TGI [13] | TGI [14] | TGI [16] | TGI [17] | TGI [19] | TGI [20] | TGI [21] | TGI [22] | TGI [23] | TGI [24] | TGI [28] | TGI [31] | TGI [33] | TGI [34] | TGI [35] | TGI [37] | TGI [38] | TGI [39] | TGI [41] | TGI [42] | TGI [43] | TGI [44] | TGI [45] | TGI [47] | TGI [48] | TGI [49] | TGI [53] | TGI [54] | TGI [58]
2950 nM: TGI [1]
1290 nM: TGI [3]
2470 nM: TGI [46]
4590 nM: TGI [2]
17600 nM: TGI [52]
1110 nM: TGI [10]
5030 nM: TGI [12]
active: GI50 [1] 271 nM | GI50 [2] 12.1 nM | GI50 [3] < 10 nM | GI50 [5] 187 nM | GI50 [10] < 10 nM | GI50 [12] < 10 nM | GI50 [13] 141 nM | GI50 [19] 33.1 nM | GI50 [20] < 10 nM | GI50 [23] 166 nM | GI50 [24] 51.7 nM | GI50 [26] < 10 nM | GI50 [28] 191 nM | GI50 [29] < 10 nM | GI50 [30] < 10 nM | GI50 [32] 99.5 nM | GI50 [33] 53.6 nM | GI50 [36] < 10 nM | GI50 [40] < 10 nM | GI50 [42] 253 nM | GI50 [46] 10.1 nM | GI50 [48] 89.4 nM | GI50 [51] 202 nM | GI50 [52] < 10 nM | GI50 [55] 181 nM
9780 nM: TGI [56]
16300 nM: TGI [27]
4880 nM: TGI [57]
43300 nM: TGI [25]
43200 nM: TGI [18]
inactive: GI50 [4] 2910 nM | GI50 [6] 4050 nM | GI50 [7] 1510 nM | GI50 [8] 3820 nM | GI50 [9] 5920 nM | GI50 [11] 5320 nM | GI50 [14] 1690 nM | GI50 [15] 1440 nM | GI50 [16] 552 nM | GI50 [17] 1810 nM | GI50 [18] 1480 nM | GI50 [21] 1540 nM | GI50 [22] 2100 nM | GI50 [25] 1960 nM | GI50 [27] 1200 nM | GI50 [31] 7210 nM | GI50 [34] 3250 nM | GI50 [35] 878 nM | GI50 [37] 1340 nM | GI50 [38] 586 nM | GI50 [39] 2710 nM | GI50 [41] 2340 nM | GI50 [43] 1130 nM | GI50 [44] 682 nM | GI50 [45] 2420 nM | GI50 [47] 1890 nM | GI50 [49] 918 nM | GI50 [50] 547 nM | GI50 [53] 4920 nM | GI50 [54] 19600 nM | GI50 [56] 1510 nM | GI50 [57] 1440 nM | GI50 [58] 976 nM
< 10 nM: TGI [29] | TGI [30] | TGI [36] | TGI [40]
3080 nM: TGI [32]
5220 nM: TGI [51]
